Measurements as given in patent US11053204B2, “Pyrimidinyloxy benzene derivatives as herbicides” (FMC Corporation, priority 2015, dated 2021).

What was measured:
Format in all cases: in vivo
corn (Zea mays) = assay: Test A postemergence, visual injury rating; settings: 0 is no effect, 100 is complete control
Procedure, shortened: (§1)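 Compounds in non-phytotoxic solvent with surfactant applied as soil spray preemergence, or postemergence to plants 2-10 cm at one- to two-leaf stage, in loam/sand. After approximately 10 days in greenhouse, injury rated visually versus untreated controls, 0 (no effect) to 100 (complete control).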

kochia (Kochia scoparia) = assay: Test A postemergence, visual injury rating; settings: 0 is no effect, 100 is complete control
Procedure, shortened: as §1

[1] = tested on: wheat (Triticum aestivum); assay: Test A postemergence, visual injury rating; settings: 0 is no effect, 100 is complete control
Procedure, shortened: as §1

[2] = tested on: pigweed (Amaranthus retroflexus); assay: Test A postemergence, visual injury rating; settings: 0 is no effect, 100 is complete control
Procedure, shortened: as §1

[3] = tested on: barnyardgrass (Echinochloa crus-galli); assay: Test A postemergence, visual injury rating; settings: 0 is no effect, 100 is complete control
Procedure, shortened: as §1

[4] = tested on: giant foxtail (Setaria faberii); assay: Test A postemergence, visual injury rating; settings: 0 is no effect, 100 is complete control
Procedure, shortened: as §1

[5] = tested on: galium (catchweed bedstraw, Galium aparine); assay: Test A postemergence, visual injury rating; settings: 0 is no effect, 100 is complete control
Procedure, shortened: as §1

[6] = tested on: ragweed (common ragweed, Ambrosia elatior); assay: Test A postemergence, visual injury rating; settings: 0 is no effect, 100 is complete control
Procedure, shortened: as §1

[7] = tested on: Italian ryegrass (Lolium multiflorum); assay: Test A postemergence, visual injury rating; settings: 0 is no effect, 100 is complete control
Procedure, shortened: as §1

[8] = tested on: blackgrass (Alopecurus myosuroides); assay: Test A postemergence, visual injury rating; settings: 0 is no effect, 100 is complete control
Procedure, shortened: as §1

[9] = tested on: waterhemp (common waterhemp, Amaranthus rudis); assay: Test C postemergence, plant response rating; settings: for Plant response rating, Waterhemp: scale 0 to 100; for Waterhemp plant response rating: scale 0 to 100 (0 no effect, 100 complete control)
Procedure, shortened: (§2)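 Pre-emergence: seeds sown in loam soil–sand blend or silt loam and sprayed with test chemicals in a non-phytotoxic solvent mixture with surfactant. Post-emergence: plants 2 to 18 cm (1- to 4-leaf stage) in peat-based potting medium, same formulation. Greenhouse 13 to 15 d; visual rating 0 (no effect) to 100 (complete control) versus controls.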

soybean (Glycine max) = assay: Test C postemergence, plant response rating; settings: for Plant response rating, Soybean: scale 0 to 100; for Soybean plant response rating: scale 0 to 100 (0 no effect, 100 complete control)
Procedure, shortened: as §2

[10] = tested on: wheat (winter wheat, Triticum aestivum); assay: Test C postemergence, plant response rating; settings: for Plant response rating, Wheat: scale 0 to 100; for Wheat plant response rating: scale 0 to 100 (0 no effect, 100 complete control)
Procedure, shortened: as §2

[11] = tested on: chickweed (common chickweed, Stellaria media); assay: Test C postemergence, plant response rating; settings: for Plant response rating, Chickweed: scale 0 to 100; for Chickweed plant response rating: scale 0 to 100 (0 no effect, 100 complete control)
Procedure, shortened: as §2

[12] = tested on: galium (catchweed bedstraw, Galium aparine); assay: Test C postemergence, plant response rating; settings: for Plant response rating, Galium: scale 0 to 100; for Galium plant response rating: scale 0 to 100 (0 no effect, 100 complete control)
Procedure, shortened: as §2

[13] = tested on: foxtail, giant (giant foxtail, Setaria faberii); assay: Test C postemergence, plant response rating; settings: for Plant response rating, Foxtail, Giant: scale 0 to 100; for Foxtail, Giant plant response rating: scale 0 to 100 (0 no effect, 100 complete control)
Procedure, shortened: as §2

[14] = tested on: oilseed rape (Brassica napus); assay: Test C postemergence, plant response rating; settings: for Plant response rating, Oilseed Rape: scale 0 to 100; for Oilseed Rape plant response rating: scale 0 to 100 (0 no effect, 100 complete control)
Procedure, shortened: as §2

[15] = tested on: blackgrass (Alopecurus myosuroides); assay: Test C postemergence, plant response rating; settings: for Plant response rating, Blackgrass: scale 0 to 100; for Blackgrass plant response rating: scale 0 to 100 (0 no effect, 100 complete control)
Procedure, shortened: as §2

[16] = tested on: ryegrass, Italian (Italian ryegrass, Lolium multiflorum); assay: Test C postemergence, plant response rating; settings: for Plant response rating, Ryegrass, Italian: scale 0 to 100; for Ryegrass, Italian plant response rating: scale 0 to 100 (0 no effect, 100 complete control)
Procedure, shortened: as §2

[17] = 125 g ai/ha, 0 to 100 scale, approximately 10 days

## CCCC(=O)c1c(Br)cccc1Oc1ncc(Cl)cn1 [Compound 75]
Corn (Zea mays); 125 g ai/ha
  Corn plant response rating (0 to 100 scale): 80
Corn (Zea mays); 500 g ai/ha
  Corn plant response rating (0 to 100 scale): 90
Kochia (Kochia scoparia); [17]
  Kochia plant response rating: 100
Kochia (Kochia scoparia); 500 g ai/ha
  Kochia plant response rating (0 to 100 scale): 100
[1]; [17]
  Wheat plant response rating: 20
[1]; 500 g ai/ha
  Wheat plant response rating (0 to 100 scale): 70
[2]; [17]
  Pigweed plant response rating: 100
[2]; 500 g ai/ha
  Pigweed plant response rating (0 to 100 scale): 100
[3]; 125 g ai/ha
  Barnyardgrass plant response rating (0 to 100 scale): 90
[3]; 500 g ai/ha
  Barnyardgrass plant response rating (0 to 100 scale): 100
[4]; 125 g ai/ha
  Foxtail, Giant plant response rating (0 to 100 scale): 90
[4]; 500 g ai/ha
  Foxtail, Giant plant response rating (0 to 100 scale): 100
[5]; 125 g ai/ha
  Galium plant response rating (0 to 100 scale): 80
[5]; 500 g ai/ha
  Galium plant response rating (0 to 100 scale): 100
[6]; [17]
  Ragweed plant response rating: 30
[6]; 500 g ai/ha
  Ragweed plant response rating (0 to 100 scale): 40
[7]; [17]
  Ryegrass, Italian plant response rating: 40
[7]; 500 g ai/ha
  Ryegrass, Italian plant response rating (0 to 100 scale): 70
[8]; 125 g ai/ha
  Blackgrass plant response rating (0 to 100 scale): 40
[8]; 500 g ai/ha
  Blackgrass plant response rating (0 to 100 scale): 60
[9]; 16 g ai/ha
  Plant response rating, Waterhemp: 85
[9]; 31 g ai/ha
  Plant response rating, Waterhemp: 90
[9]; 62 g ai/ha
  Waterhemp plant response rating: 90
[9]; 125 g ai/ha
  Waterhemp plant response rating: 95
Soybean (Glycine max); 16 g ai/ha
  Plant response rating, Soybean: 50
Soybean (Glycine max); 31 g ai/ha
  Plant response rating, Soybean: 65
Soybean (Glycine max); 62 g ai/ha
  Soybean plant response rating: 85
Soybean (Glycine max); 125 g ai/ha
  Soybean plant response rating: 85
[10]; 16 g ai/ha
  Plant response rating, Wheat: 0
[10]; 31 g ai/ha
  Plant response rating, Wheat: 5
[10]; 62 g ai/ha
  Wheat plant response rating: 0
[10]; 125 g ai/ha
  Wheat plant response rating: 10
[11]; 16 g ai/ha
  Plant response rating, Chickweed: 60
[11]; 31 g ai/ha
  Plant response rating, Chickweed: 85
[11]; 62 g ai/ha
  Chickweed plant response rating: 90
[11]; 125 g ai/ha
  Chickweed plant response rating: 98
[12]; 16 g ai/ha
  Plant response rating, Galium: 40
[12]; 31 g ai/ha
  Plant response rating, Galium: 70
[12]; 62 g ai/ha
  Galium plant response rating: 70
[12]; 125 g ai/ha
  Galium plant response rating: 80
[13]; 16 g ai/ha
  Plant response rating, Foxtail, Giant: 10
[13]; 31 g ai/ha
  Plant response rating, Foxtail, Giant: 10
[13]; 62 g ai/ha
  Foxtail, Giant plant response rating: 10
[13]; 125 g ai/ha
  Foxtail, Giant plant response rating: 25
[14]; 16 g ai/ha
  Plant response rating, Oilseed Rape: 60
[14]; 31 g ai/ha
  Plant response rating, Oilseed Rape: 80
[14]; 62 g ai/ha
  Oilseed Rape plant response rating: 80
[14]; 125 g ai/ha
  Oilseed Rape plant response rating: 95
[15]; 16 g ai/ha
  Plant response rating, Blackgrass: 0
[15]; 31 g ai/ha
  Plant response rating, Blackgrass: 5
[15]; 62 g ai/ha
  Blackgrass plant response rating: 10
[15]; 125 g ai/ha
  Blackgrass plant response rating: 30
[16]; 16 g ai/ha
  Plant response rating, Ryegrass, Italian: 0
[16]; 31 g ai/ha
  Plant response rating, Ryegrass, Italian: 10
[16]; 62 g ai/ha
  Ryegrass, Italian plant response rating: 10
[16]; 125 g ai/ha
  Ryegrass, Italian plant response rating: 5
